{"source": "patent US8092822B2", "about": "“Coatings including dexamethasone derivatives and analogs and olimus drugs” (Abbott Cardiovascular Systems Inc., priority 2008, dated 2012)", "origin": "cited, not measured here", "key": {"[1]": {"system": "endothelial cell proliferation"}, "[2]": {"system": "human coronary artery endothelial cells", "details": "in vitro"}}, "data": [{"smiles": "CC(=O)O[C@H]1C(=O)[C@@]2(C)[C@H]([C@H](OC(=O)c3ccccc3)[C@]3(O)C[C@H](OC(=O)[C@H](O)[C@@H](NC(=O)c4ccccc4)c4ccccc4)C(C)=C1C3(C)C)[C@]1(OC(C)=O)CO[C@@H]1C[C@@H]2O", "note": "[paclitaxel, Paclitaxel]", "values": [{"measurement": "inhibition of endothelial cell proliferation", "setting": "[1]", "result": "inhibit"}, {"measurement": "inhibition of migration of human coronary artery endothelial cells", "setting": "[2]", "result": "inhibits"}]}, {"smiles": "C[C@@H]1C[C@H]2[C@@H]3CCC4=CC(=O)C=C[C@]4(C)[C@@]3(F)[C@@H](O)C[C@]2(C)[C@@]1(O)C(=O)CO", "note": "[dexamethasone, Dexamethasone]", "values": [{"measurement": "effect on endothelial migration", "setting": "endothelial migration", "result": "positive effect"}]}, {"smiles": "CO[C@H]1C[C@@H]2CC[C@@H](C)[C@@](O)(O2)C(=O)C(=O)N2CCCC[C@H]2C(=O)O[C@H]([C@H](C)C[C@@H]2CC[C@H](n3cnnn3)[C@H](OC)C2)CC(=O)[C@H](C)/C=C(\\C)[C@@H](O)[C@@H](OC)C(=O)[C@H](C)C[C@H](C)/C=C/C=C/C=C/1C", "note": "[zotarolimus]", "values": [{"measurement": "inhibition of endothelial cell proliferation", "setting": "[1]", "result": "inhibit"}]}]}
